# Reference: ChEMBL document CHEMBL1201862, “PubChem BioAssay data set” (2004)
# Calls of active or inactive are those of the source.
# How the values were obtained:
# [1] = Luminescence Cell-Based Dose Response HTS to Identify Activators of Luciferase Translation or Activity in H4 […] Cells. [Related pubchem assays: 1829 (Project Summary), 1814 (Primary HTS)]; format: functional
# H4 = test: Luminescence Cell-Based Dose Response HTS to Identify Activators of 5'UTR Stem-Loop Driven Prion Protein mRNA Translation in H4 Neuroglioblastoma Cells. [Related pubchem assays: 1829 (Project Summary), 1814 (Primary HTS)]; format: functional; conditions: Homo sapiens
# [2] = inhibitors of intracellular T. cruzi replication, confirmation, NIH3T3 host cells, beta-gal luminescence (AID 2044); format: functional, cell-based;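 note: intracellular parasites grown in NIH/3T3 mouse fibroblasts as host cells; luminescent beta-galactosidase reporter signal from transgenic T. cruzi replicating inside host cells; inhibitors lower the luminescence signal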
# [3] = cytotoxicity toward NIH3T3 fibroblasts, dose response, counter-screen, cell-based, ATP luminescence, mouse fibroblasts (AID 2010); format: functional;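 note: cells exposed to compound for about 90 hours before reading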
# [4] = target: T1, Corticotropin-releasing factor receptor 2/Corticotropin-releasing factor-binding protein (Homo sapiens, UniProt P24387+Q13324); test: Dose Response confirmation of uHTS hits for small molecule antagonists of the CRF-binding protein and CRF-R2 receptor complex.; format: functional; conditions: read-out: IC50_Mean
# T1 sequence (Q13324 whole entry): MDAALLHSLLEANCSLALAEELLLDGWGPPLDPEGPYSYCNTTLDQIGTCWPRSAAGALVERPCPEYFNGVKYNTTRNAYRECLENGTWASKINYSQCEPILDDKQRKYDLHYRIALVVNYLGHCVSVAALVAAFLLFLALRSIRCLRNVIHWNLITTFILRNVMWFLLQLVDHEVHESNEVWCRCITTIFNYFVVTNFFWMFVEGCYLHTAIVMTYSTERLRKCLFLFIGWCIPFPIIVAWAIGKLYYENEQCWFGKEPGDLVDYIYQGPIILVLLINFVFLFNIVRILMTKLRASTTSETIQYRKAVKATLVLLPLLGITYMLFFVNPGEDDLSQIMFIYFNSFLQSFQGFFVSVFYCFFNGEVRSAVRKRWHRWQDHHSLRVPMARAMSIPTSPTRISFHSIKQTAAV
# T1 sequence (P24387 whole entry): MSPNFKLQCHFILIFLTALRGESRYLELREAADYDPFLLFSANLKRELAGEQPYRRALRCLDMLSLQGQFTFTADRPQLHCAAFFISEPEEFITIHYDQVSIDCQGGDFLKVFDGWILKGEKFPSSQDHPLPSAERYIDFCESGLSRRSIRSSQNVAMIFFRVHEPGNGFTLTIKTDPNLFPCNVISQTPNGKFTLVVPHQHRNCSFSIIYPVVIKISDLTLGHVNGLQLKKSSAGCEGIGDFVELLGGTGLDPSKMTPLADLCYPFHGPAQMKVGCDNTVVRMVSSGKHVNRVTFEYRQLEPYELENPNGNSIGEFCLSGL
# [5] = target: T1, Corticotropin-releasing factor receptor 2/Corticotropin-releasing factor-binding protein; test: activators of CRF receptor 2 with binding protein – uHTS hits, confirmation (AID 602473); format: functional; conditions: read-out: EC50_Mean
# [6] = HEp-2 cell cytotoxicity, dose response, cytotoxicity control for RSV inhibitor project, HTS (AID 2410); format: functional; conditions: human respiratory syncytial virus
# [7] = target: T2, Calpain-2 catalytic subunit (Sus scrofa, UniProt P43367); test: pig calpain II inhibitor potency, dose response, biochemical, fluorogenic peptide substrate (AID 1420); format: functional
# T2 sequence (P43367 whole entry): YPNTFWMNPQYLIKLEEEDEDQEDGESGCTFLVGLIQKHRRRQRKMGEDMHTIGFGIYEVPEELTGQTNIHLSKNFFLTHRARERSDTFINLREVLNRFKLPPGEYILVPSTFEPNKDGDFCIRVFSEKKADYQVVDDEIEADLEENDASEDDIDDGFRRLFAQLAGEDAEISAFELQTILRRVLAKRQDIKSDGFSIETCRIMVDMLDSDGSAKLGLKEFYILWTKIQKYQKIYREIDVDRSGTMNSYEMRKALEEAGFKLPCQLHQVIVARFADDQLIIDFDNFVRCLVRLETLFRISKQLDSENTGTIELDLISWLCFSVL
# [8] = THP-1 cell cytotoxicity, dose response, cytotoxicity control for non-replicating M. tuberculosis project (AID 489025); format: functional
# [9] = target: T3, Heat shock factor protein 1 (Mus musculus, UniProt P38532); test: HSF1 potentiators in luciferase reporter cells, confirmation, cell-based, NIH3T3, luminescence, dose retest (AID 435004); format: functional;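 note: stress induced by proteasome inhibitor MG132 added 30 min after compound; luciferase reporter driven by HSF1 response element in NIH3T3 cells; actives raise luminescence as potentiators of the MG132 stress response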
# T3 sequence (P38532 whole entry): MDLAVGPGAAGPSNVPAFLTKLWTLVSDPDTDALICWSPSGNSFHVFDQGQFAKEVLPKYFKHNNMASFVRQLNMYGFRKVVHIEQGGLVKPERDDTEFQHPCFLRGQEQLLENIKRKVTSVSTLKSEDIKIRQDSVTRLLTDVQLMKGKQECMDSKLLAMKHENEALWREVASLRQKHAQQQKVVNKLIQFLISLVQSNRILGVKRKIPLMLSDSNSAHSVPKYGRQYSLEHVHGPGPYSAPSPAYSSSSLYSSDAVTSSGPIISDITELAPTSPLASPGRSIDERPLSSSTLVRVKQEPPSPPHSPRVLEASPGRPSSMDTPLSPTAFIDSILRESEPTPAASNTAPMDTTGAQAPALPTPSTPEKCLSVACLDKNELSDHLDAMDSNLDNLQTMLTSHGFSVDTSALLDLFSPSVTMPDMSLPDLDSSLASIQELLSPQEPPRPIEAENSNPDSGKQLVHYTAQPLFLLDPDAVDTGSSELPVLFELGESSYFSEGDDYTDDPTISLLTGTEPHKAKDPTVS
# Vero = test: cells; format: functional; conditions: Chlorocebus sabaeus
# [10] = growth suppression of PTEN-null colon cells, dose response, cell-based, HCT116 PTEN knockout (AID 1047); format: functional;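 note: HCT116 colon tumor cells with PTEN knocked out; cells exposed to compound for 60 hours before readout; potency for loss of cell viability measured by luminescence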
# [11] = growth suppression of beta-catenin-knockout colon cells, dose response, cell-based, HCT116, human colon tumor (AID 1045); format: functional;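 note: HCT116 colon tumor cells with beta catenin knocked out; cells exposed to compound for 60 hours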
# INS1 = test: beta cell apoptosis inhibitors, cytokine rescue, dose response, luminescence, retest (AID 449756); format: functional, cell-based; conditions: Rattus norvegicus;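 note: cell death triggered by IL-1 beta plus TNF-alpha plus IFN-gamma mixture; protective hits raise ATP signal compared with cytokine alone wells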
# [12] = Shn3 3'UTR reporter inhibitors, dose response, cell-based, Clone20 osteoblasts, firefly luciferase, cherry-picked (AID 624132); format: functional;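 note: firefly luciferase luminescence from reporter carrying the Shn3 3'UTR in osteoblasts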
# [13] = HepG2 cell cytotoxicity, dose response, cytotoxicity control for Shn3 inhibitor project, CellTiter-Glo, cherry-picked (AID 624134); format: functional, cell-based
# [14] = control 3'UTR Renilla luciferase suppression, dose response, counter-screen for Shn3 inhibitor project, cell-based, Clone20-Shn3RL, cherry-picked (AID 624133); format: functional
# [15] = target: Induced myeloid leukemia cell differentiation protein Mcl-1 (Homo sapiens, UniProt Q07820); format: functional
# [16] = target: T4, Rac GTPase-activating protein 1 (Homo sapiens, UniProt Q9H0H5); test: MgcRacGAP GTPase-activating activity inhibitors, confirmation, biochemical, ADP Hunter fluorescence, primary and confirmatory (AID 624330); format: functional
# T4 sequence (Q9H0H5 whole entry): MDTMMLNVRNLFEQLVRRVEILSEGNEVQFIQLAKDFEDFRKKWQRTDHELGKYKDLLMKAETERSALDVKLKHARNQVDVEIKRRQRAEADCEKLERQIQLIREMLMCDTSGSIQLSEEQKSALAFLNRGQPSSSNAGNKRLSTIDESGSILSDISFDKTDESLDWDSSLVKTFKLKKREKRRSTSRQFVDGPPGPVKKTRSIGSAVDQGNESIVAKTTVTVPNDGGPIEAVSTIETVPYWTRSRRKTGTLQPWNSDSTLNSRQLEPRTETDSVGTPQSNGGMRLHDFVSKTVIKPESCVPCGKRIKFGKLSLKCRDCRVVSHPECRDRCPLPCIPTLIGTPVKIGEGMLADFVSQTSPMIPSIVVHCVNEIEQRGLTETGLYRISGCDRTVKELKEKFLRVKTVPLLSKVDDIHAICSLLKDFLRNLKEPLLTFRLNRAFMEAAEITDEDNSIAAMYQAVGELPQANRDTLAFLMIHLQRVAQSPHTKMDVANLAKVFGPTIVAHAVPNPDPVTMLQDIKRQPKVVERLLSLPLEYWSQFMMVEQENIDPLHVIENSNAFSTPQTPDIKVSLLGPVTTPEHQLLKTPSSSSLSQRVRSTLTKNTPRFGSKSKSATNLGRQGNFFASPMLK
# Cytochrome P450 2D6 = Cytochrome P450 2D6 (Homo sapiens, UniProt P10635);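 note: CYP2D6 member of a cytochrome P450 panel assay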
# cells = format: functional
# Cytochrome P450 1A2 = target: T5, Cytochrome P450 1A2 (Homo sapiens, UniProt P05177);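 note: PubChem cytochrome P450 panel assay, CYP1A2 panel member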
# T5 sequence (P05177 whole entry): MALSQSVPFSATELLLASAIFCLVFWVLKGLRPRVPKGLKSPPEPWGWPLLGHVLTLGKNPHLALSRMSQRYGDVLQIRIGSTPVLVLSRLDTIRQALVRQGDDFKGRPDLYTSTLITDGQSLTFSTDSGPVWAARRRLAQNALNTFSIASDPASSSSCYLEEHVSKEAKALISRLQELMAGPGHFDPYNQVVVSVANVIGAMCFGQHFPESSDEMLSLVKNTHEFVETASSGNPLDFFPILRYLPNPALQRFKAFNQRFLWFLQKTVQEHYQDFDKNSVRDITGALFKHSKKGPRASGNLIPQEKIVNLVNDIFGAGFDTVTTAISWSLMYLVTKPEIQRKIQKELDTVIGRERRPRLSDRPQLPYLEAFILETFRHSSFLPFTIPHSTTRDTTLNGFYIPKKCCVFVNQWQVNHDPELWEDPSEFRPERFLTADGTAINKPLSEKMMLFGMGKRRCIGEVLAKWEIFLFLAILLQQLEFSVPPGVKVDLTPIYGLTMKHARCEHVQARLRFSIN
# Cytochrome P450 3A4 = Cytochrome P450 3A4 (Homo sapiens, UniProt P08684);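 note: CYP3A4 tested as one member of a cytochrome P450 panel screen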
# [17] = microbe, parasite or virus in culture; format: functional; conditions: Mycobacterium tuberculosis
# Induced myeloid leukemia cell differentiation protein Mcl-1, sequence (Q07820 whole entry): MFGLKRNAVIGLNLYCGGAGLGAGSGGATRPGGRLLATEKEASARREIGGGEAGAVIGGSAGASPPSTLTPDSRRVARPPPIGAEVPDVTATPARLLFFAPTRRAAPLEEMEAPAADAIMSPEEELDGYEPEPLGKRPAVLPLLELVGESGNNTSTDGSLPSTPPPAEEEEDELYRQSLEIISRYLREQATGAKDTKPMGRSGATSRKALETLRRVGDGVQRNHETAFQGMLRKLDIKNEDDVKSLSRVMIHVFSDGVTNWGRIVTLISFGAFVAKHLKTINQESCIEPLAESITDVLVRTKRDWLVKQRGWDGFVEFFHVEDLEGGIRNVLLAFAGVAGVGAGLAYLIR
# Cytochrome P450 2D6, sequence (P10635 whole entry): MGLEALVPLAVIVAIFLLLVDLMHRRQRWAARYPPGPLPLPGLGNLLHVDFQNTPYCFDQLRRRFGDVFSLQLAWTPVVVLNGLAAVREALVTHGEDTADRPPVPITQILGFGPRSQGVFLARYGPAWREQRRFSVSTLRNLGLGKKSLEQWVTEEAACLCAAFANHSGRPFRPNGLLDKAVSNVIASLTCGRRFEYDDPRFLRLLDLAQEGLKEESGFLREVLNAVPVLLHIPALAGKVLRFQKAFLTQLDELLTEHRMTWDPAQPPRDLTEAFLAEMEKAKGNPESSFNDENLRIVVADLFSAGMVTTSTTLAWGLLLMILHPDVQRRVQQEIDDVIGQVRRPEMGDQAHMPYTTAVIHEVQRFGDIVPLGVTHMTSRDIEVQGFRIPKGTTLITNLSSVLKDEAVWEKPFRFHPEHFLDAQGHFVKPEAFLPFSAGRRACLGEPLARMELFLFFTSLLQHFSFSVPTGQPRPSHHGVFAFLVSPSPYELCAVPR
# Cytochrome P450 3A4, sequence (P08684 whole entry): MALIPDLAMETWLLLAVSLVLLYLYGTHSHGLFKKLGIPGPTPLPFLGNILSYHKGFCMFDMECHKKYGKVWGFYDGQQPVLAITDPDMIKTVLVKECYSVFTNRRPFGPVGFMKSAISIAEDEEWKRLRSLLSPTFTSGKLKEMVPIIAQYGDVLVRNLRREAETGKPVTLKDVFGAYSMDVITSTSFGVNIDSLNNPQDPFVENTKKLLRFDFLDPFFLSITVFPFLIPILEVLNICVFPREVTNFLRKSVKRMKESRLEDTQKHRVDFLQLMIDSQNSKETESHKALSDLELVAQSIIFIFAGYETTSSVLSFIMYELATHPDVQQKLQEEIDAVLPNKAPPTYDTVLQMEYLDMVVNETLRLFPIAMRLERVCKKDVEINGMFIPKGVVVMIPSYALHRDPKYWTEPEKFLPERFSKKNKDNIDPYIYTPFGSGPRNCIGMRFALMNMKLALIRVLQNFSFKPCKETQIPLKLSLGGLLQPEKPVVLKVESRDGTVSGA
compound,measurement,setting,value
CC1CCC(NC(=O)Cn2ncc3ccccc32)CC1 (stereo unspecified),EC50,[1],> 120 µM (not active)
same,EC50,H4,> 120 µM (not active)
O=C(Cn1cnc([N+](=O)[O-])n1)NCCc1ccccc1,EC50,[2],0.537 µM (active)
same,EC50,[3],> 60 µM (not active)
same,IC50,[4],> 47.1 µM (inactive)
same,EC50,[5],> 53 µM (inactive)
COc1ccc(CNc2ccc([N+](=O)[O-])cc2C)cc1,CC50,[6],35 µM (active)
same,IC50,[7],3.81 µM (not active)
Cc1noc(NS(=O)(=O)c2ccc(NC(=O)c3ccc(N4C(=O)c5ccccc5C4=O)cc3)cc2)c1C,IC50,[7],4.9 µM (not active)
SC1=NC[C@H](Cc2cccc3ccccc23)N1CC1CCCCC1,IC50,[7],> 50 µM (not active)
Cc1ccc(CN2CCSc3ccc(C(=O)N4CCN(c5ncccn5)CC4)cc32)cc1,IC50,[4],> 47.1 µM (inactive)
same,EC50,[5],> 53 µM (inactive)
CC(C)(C)c1csc(NC(=O)c2ccccc2O)n1,CC50,[8],38.7 µM (active)
O=C(CSc1nnc(-c2ccc(F)cc2)c2ccccc12)Nc1ccccc1,EC50,[9],104 µM (active)
O=C(CCC(=O)N1CCOc2ccccc21)NC1CCCCCC1,IC50,[4],> 47.1 µM (inactive)
same,EC50,[5],> 53 µM (inactive)
CN1C(=O)c2ccc(C(=O)NCc3ccc4c(c3)OCO4)cc2C1=O,IC50,[7],23.2 µM (not active)
Cc1ccc(C2(C)CC(C)(C)N(C(=O)CSc3nnc(C)s3)c3ccccc32)cc1 (stereo unspecified),IC50,[4],> 47.1 µM (inactive)
same,EC50,[5],> 53 µM (inactive)
COc1cc(/C=C/C(=O)N2C(=O)c3cccc(N)c3C2=O)cc(OC)c1OC,EC50,[9],2.98 µM (active)
same,CC50,Vero,17.8 µM (active)
CCCCc1ccc(NC(=O)C2CCCO2)cc1 (stereo unspecified),IC50,[7],13.4 µM (not active)
CC(=O)N[C@H]1C[C@@H]1c1ccccc1,IC50,[4],> 47.1 µM (inactive)
same,EC50,[5],> 53 µM (inactive)
O=C(C1CC1)N1CCc2cc(Br)cc(S(=O)(=O)NC3CCCCC3)c21,IC50,[7],> 50 µM (not active)
c1ccc(N2CCN(c3ncnc4scc(-c5cccs5)c34)CC2)cc1,EC50,[10],56.8 µM (active)
same,IC50,[7],1.1 µM (not active)
same,EC50,[11],71.5 µM (active)
CC1=C(C#N)C(C(F)(F)F)(C(F)(F)F)NC(c2ccco2)=N1,AC50,INS1,4.65 µM (active)
same,AC50,[12],7.72 µM (active)
same,AC50,[13],> 70 µM (inactive)
same,AC50,[14],10.1 µM (active)
CCN(CC)c1ccc(NC(=O)c2ccccc2OCC(=O)OC)cc1,IC50,[15],6.35 µM (not active)
O=C(/C=C/c1cccs1)N1CCOCC1,IC50,[7],> 50 µM (not active)
COc1ccccc1-c1c(NC(=O)C(C)C)n(C)c2ccccc2c1=O,IC50,[4],> 47.1 µM (inactive)
same,EC50,[5],> 53 µM (inactive)
CCOc1cc(/C=C(\C#N)c2n[nH]c(N)c2C#N)ccc1O,IC50,[15],5.24 µM (active)
same,IC50,[16],17.1 µM (active)
Nc1ccc(Sc2cnn(-c3ccccc3)c(=O)c2Cl)cc1,EC50,[9],> 260 µM (inactive)
same,AC50,Cytochrome P450 2D6,12.6 µM (inconclusive)
CC1(C(=O)OCC(=O)Nc2nnc(-c3ccccc3)o2)CC1(Cl)Cl (stereo unspecified),CC50,[8],> 40 µM (active)
same,IC50,cells,24.9 µM (active)
CCNc1nc(NCC)nc(C(=O)NN)n1,IC50,[15],2.32 µM (active)
CC1CCCN(C(=O)c2sc3cc([N+](=O)[O-])ccc3c2Cl)C1 (stereo unspecified),IC50,[7],7.61 µM (active)
same,AC50,Cytochrome P450 1A2,15.8 µM (inconclusive)
same,AC50,Cytochrome P450 3A4,17.8 µM (inconclusive)
CN(c1ccccc1)c1nc(N)c([N+](=O)[O-])c(N2CCCCCC2)n1,EC50,[9],27.7 µM (active)
O=C(C[C@H]1C/C=C\C[C@@H](Cc2ccc(F)cc2)C(=O)O[C@H](c2ccccc2)CNC1=O)NCCO,IC50,[4],> 47.1 µM (inactive)
same,EC50,[5],> 53 µM (inactive)
Cc1cccc(C(=O)Oc2ccc(/C=N/NC(=O)c3ccc(O)cc3)cc2)c1,IC50,[4],> 47.1 µM (inactive)
same,EC50,[5],> 53 µM (inactive)
CC(/C=N/NC(=O)c1cc(-c2ccc3ccccc3c2)[nH]n1)=C\c1ccco1,CC50,[17],37.2 µM (active)
same,IC50,[15],4.1 µM (active)
Cc1cc([N+](=O)[O-])c(-c2ccc(/C=N/n3cnnc3)o2)cc1Cl,IC50,[7],1.59 µM (not active)
C/N=C1/S/C(=C\c2ccc(OCC(=O)OC)c(OC)c2)C(=O)N1C,CC50,[8],> 40 µM (active)
same,IC50,cells,4.45 µM (active)
